Measurements as given in patent US20240043618A1, “ANTIMICROBIAL COMPOSITIONS” (priority 2021, published 2024).

Experiments:
E. coli (gram−) = conditions: reported value of antibiotic; cited from earlier work
[1] = system: C. albicans fungal strain; conditions: reported value of antibiotic; cited from earlier work
S. aureus (gram+) = conditions: reported value of antibiotic; cited from earlier work
P. aeruginosa (gram−) = conditions: reported value of antibiotic; cited from earlier work
B. subtilis (gram+) = conditions: reported value of antibiotic; cited from earlier work
SARS-CoV-2 = format: cell-based; conditions: 70% concentration, 30 min contact, 22 ± 2° C.

Row | Compound | MIC (E. coli (gram−)) [µg/mL] | MIC [1] [µg/mL] | MIC (S. aureus (gram+)) [µg/mL] | MIC (P. aeruginosa (gram−)) [µg/mL] | MIC (B. subtilis (gram+)) [µg/mL] | Virus Titer (SARS-CoV-2) | LRV (log reduction value) (SARS-CoV-2; vs virus control 4.3) | Toxicity (highest dilution of the endpoint titer where full (80-100%) cytotoxicity was observed) (Vero E6 cells)
1 | gentamycin | 8 | 2.5 | 10 | 4 | 4 | – | – | –
2 | CCO [Ethanol] | – | – | – | – | – | <0.7 log10 CCID50 of virus per 0.1 mL | >3.6 | None
